± gives the expanded uncertainty stated by the source.
How the values were obtained:
[1] = Gas; for mass density: Gas pipette; for viscosity: Oscillating disk viscometry
[2] = xn = mol fraction of the nth substance listed; settings: Gas, x2 = 0; for mass density: Gas pipette; for viscosity: Oscillating disk viscometry

N#N [nitrogen]
[1]
Settings | mass density [kg/m3] | viscosity [mPa·s]
298.15 K, 101 kPa | 1.178 ± 0.072 | 0.01786 ± 0.00057
298.15 K, 240 kPa | 2.833 ± 0.17 | 0.01788 ± 0.00057
298.15 K, 672 kPa | 7.705 ± 0.46 | 0.01794 ± 0.00057
323.15 K, 101 kPa | 0.858 ± 0.053 | 0.01901 ± 0.0006
323.15 K, 290 kPa | 3.114 ± 0.19 | 0.01904 ± 0.0006
323.15 K, 466 kPa | 4.925 ± 0.3 | 0.01906 ± 0.0006
323.15 K, 856 kPa | 9.024 ± 0.54 | 0.01911 ± 0.0006
348.15 K, 101 kPa | 0.761 ± 0.047 | 0.0201 ± 0.00062
348.15 K, 518 kPa | 5.043 ± 0.3 | 0.02016 ± 0.00062
348.15 K, 1010 kPa | 9.8 ± 0.59 | 0.02022 ± 0.00062
348.15 K, 2028 kPa | 19.63 ± 1.2 | 0.02037 ± 0.00063
373.15 K, 101 kPa | 0.633 ± 0.039 | 0.02116 ± 0.00065
373.15 K, 495 kPa | 4.527 ± 0.27 | 0.02121 ± 0.00065
373.15 K, 1000 kPa | 8.832 ± 0.53 | 0.02126 ± 0.00065
373.15 K, 2006 kPa | 18.01 ± 1.1 | 0.0214 ± 0.00065
373.15 K, 2930 kPa | 26.15 ± 1.6 | 0.02152 ± 0.00066
373.15 K, 3985 kPa | 35.64 ± 2.1 | 0.02168 ± 0.00066
373.15 K, 4966 kPa | 44.7 ± 2.7 | 0.02184 ± 0.00066
398.15 K, 101 kPa | 0.727 ± 0.045 | 0.02219 ± 0.00067
398.15 K, 520 kPa | 4.329 ± 0.26 | 0.02222 ± 0.00067
398.15 K, 1003 kPa | 8.657 ± 0.52 | 0.02228 ± 0.00067
398.15 K, 2000 kPa | 16.49 ± 0.99 | 0.0224 ± 0.00068
398.15 K, 3473 kPa | 28.94 ± 1.7 | 0.02259 ± 0.00068
398.15 K, 4849 kPa | 40.28 ± 2.4 | 0.02278 ± 0.00068
423.15 K, 101 kPa | 0.568 ± 0.035 | 0.02318 ± 0.00069
423.15 K, 550 kPa | 4.226 ± 0.25 | 0.02322 ± 0.00069
423.15 K, 1032 kPa | 8.294 ± 0.5 | 0.02328 ± 0.0007
423.15 K, 2012 kPa | 15.86 ± 0.95 | 0.02338 ± 0.0007
423.15 K, 3435 kPa | 26.9 ± 1.6 | 0.02354 ± 0.0007
423.15 K, 4832 kPa | 37.69 ± 2.3 | 0.02373 ± 0.00071

N#N [nitrogen] + COC
[2]
Settings | mass density [kg/m3] | viscosity [mPa·s]
298.15 K, 101 kPa | 1.178 ± 0.072 | 0.01786 ± 0.00057
298.15 K, 240 kPa | 2.833 ± 0.17 | 0.01788 ± 0.00057
298.15 K, 672 kPa | 7.705 ± 0.46 | 0.01794 ± 0.00057
323.15 K, 101 kPa | 0.858 ± 0.053 | 0.01901 ± 0.0006
323.15 K, 290 kPa | 3.114 ± 0.19 | 0.01904 ± 0.0006
323.15 K, 466 kPa | 4.925 ± 0.3 | 0.01906 ± 0.0006
323.15 K, 856 kPa | 9.024 ± 0.54 | 0.01911 ± 0.0006
348.15 K, 101 kPa | 0.761 ± 0.047 | 0.0201 ± 0.00062
348.15 K, 518 kPa | 5.043 ± 0.3 | 0.02016 ± 0.00062
348.15 K, 1010 kPa | 9.8 ± 0.59 | 0.02022 ± 0.00062
348.15 K, 2028 kPa | 19.63 ± 1.2 | 0.02037 ± 0.00063
373.15 K, 101 kPa | 0.633 ± 0.039 | 0.02116 ± 0.00065
373.15 K, 495 kPa | 4.527 ± 0.27 | 0.02121 ± 0.00065
373.15 K, 1000 kPa | 8.832 ± 0.53 | 0.02126 ± 0.00065
373.15 K, 2006 kPa | 18.01 ± 1.1 | 0.0214 ± 0.00065
373.15 K, 2930 kPa | 26.15 ± 1.6 | 0.02152 ± 0.00066
373.15 K, 3985 kPa | 35.64 ± 2.1 | 0.02168 ± 0.00066
373.15 K, 4966 kPa | 44.7 ± 2.7 | 0.02184 ± 0.00066
398.15 K, 101 kPa | 0.727 ± 0.045 | 0.02219 ± 0.00067
398.15 K, 520 kPa | 4.329 ± 0.26 | 0.02222 ± 0.00067
398.15 K, 1003 kPa | 8.657 ± 0.52 | 0.02228 ± 0.00067
398.15 K, 2000 kPa | 16.49 ± 0.99 | 0.0224 ± 0.00068
398.15 K, 3473 kPa | 28.94 ± 1.7 | 0.02259 ± 0.00068
398.15 K, 4849 kPa | 40.28 ± 2.4 | 0.02278 ± 0.00068
423.15 K, 101 kPa | 0.568 ± 0.035 | 0.02318 ± 0.00069
423.15 K, 550 kPa | 4.226 ± 0.25 | 0.02322 ± 0.00069
423.15 K, 1032 kPa | 8.294 ± 0.5 | 0.02328 ± 0.0007
423.15 K, 2012 kPa | 15.86 ± 0.95 | 0.02338 ± 0.0007
423.15 K, 3435 kPa | 26.9 ± 1.6 | 0.02354 ± 0.0007
423.15 K, 4832 kPa | 37.69 ± 2.3 | 0.02373 ± 0.00071

Source: the NIST ThermoML archive (doi:10.1021/je8009545)
